Usually IC50 stands for the concentration that gives 50% inhibition. High values mean weaker potency in that assay, low ones greater potency in that assay.

The nature of the experiment: Inhibition of lipid droplets accumulation in mouse peritoneal macrophages as a model of macrophage-derived foam-cell formation. Type of experiment: functional.
Compound `C[C@@H](OCc1ccccc1)C1NC(=O)[C@@H](NC(=O)OC(C)(C)C)Cc2ccc(O)c(c2)Oc2ccc(cc2)C[C@@H](C(=O)O)NC1=O` (stereo partly specified) returned an IC50 of 3.2 µM. For the compound `COC(=O)[C@@H]1Cc2ccc(cc2)Oc2cc(ccc2O)C[C@H](N)C(=O)NC([C@@H](C)OCc2ccccc2)C(=O)N1` (stereo partly specified), the IC50 was over 12.1 µM.

`C[C@@H](O)C1NC(=O)[C@@H](NC(=O)OC(C)(C)C)Cc2ccc(O)c(c2)Oc2ccc(cc2)C[C@@H](C(=O)O)NC1=O` (stereo partly specified) yielded an IC50 of over 12.1 µM. `C[C@@H](O)[C@@H]1NC(=O)[C@@H](N)Cc2ccc(O)c(c2)Oc2ccc(cc2)C[C@@H](C(=O)O)NC1=O` came in with an IC50 of over 22.6 µM.

The compound `COC(=O)[C@@H]1Cc2ccc(cc2)Oc2cc(ccc2O)C[C@H](N)C(=O)N[C@@H]([C@@H](C)O)C(=O)N1` registered an IC50 of over 13.5 µM. To `C[C@@H](OCc1ccccc1)C1NC(=O)[C@@H](NC(=O)Oc2ccccc2)Cc2ccc(O)c(c2)Oc2ccc(cc2)C[C@@H](C(=O)O)NC1=O` (stereo partly specified) belongs 3.1 µM.

The values above are taken from ChEMBL document CHEMBL1141041, “Discovery of halogenated eurypamide B analogues as inhibitors of lipid droplet accumulation in macrophages” (Bioorg Med Chem Lett, 2005).
